Data as given in patent US20240239818A1, “COMPOUNDS AND COMPOSITIONS COMPRISING FLUOROPHORES FOR USE IN VISUALIZATION AND PURIFICATION OR MANIPULATION” (priority 2022, published 2024).

Columns and labels:
[1] = target: T1, msGFP-HaloTag® fusion protein (mitochondria) from HEK293T cells (Rhodococcus rhodochrous, UniProt P0A3G2, A155T/A167V/A172T/A224E/C128F/C176G/D78G/E160K/E257K/H272N/K175M/K195N/L47V/L88M/N227D/S58T/T264A/Y273L/Y87F); assay: Affinity capture (streptavidin microbeads) and in-gel fluorescence; assay type: cell-based; conditions: for affinity capture (protein bound to streptavidin): streptavidin beads; for capture efficiency: mean±SEM, n=3, streptavidin beads
T1 construct: and (4) HaloTag®; expressed in transfected cells; host or cells: HEK293T, calcium phosphate transfection
T1 sequence (P0A3G2 other isoform, or with tags, fused parts or gaps with the stated changes): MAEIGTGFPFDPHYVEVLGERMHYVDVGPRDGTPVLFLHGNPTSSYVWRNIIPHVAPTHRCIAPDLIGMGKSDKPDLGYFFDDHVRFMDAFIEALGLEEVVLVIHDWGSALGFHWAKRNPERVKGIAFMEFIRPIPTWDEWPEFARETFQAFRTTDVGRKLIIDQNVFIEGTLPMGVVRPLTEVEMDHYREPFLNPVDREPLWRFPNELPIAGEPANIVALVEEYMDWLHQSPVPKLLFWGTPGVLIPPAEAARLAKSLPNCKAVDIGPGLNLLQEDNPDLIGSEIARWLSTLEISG
Experimental: Affinity capture and in-gel fluorescence experiments. Affinity capture pulldown isolation experiments of biotin-labeled HaloTag® fusion proteins were performed on ice-cold isolation buffer (IB) consisting of KCl (0.18 M), ethylene glycol-bis(β-aminoethyl ether)-N,N,N′,N′-tetraacetic acid (EGTA; 1 mM), 3-(N-morpholino)propanesulfonic acid (MOPS; 5 mM); the pH was adjusted to pH=7.35 using KOH(aq).^51 HEK293T cells were scraped with 500 μL IB and homogenized using 12 strokes with a 27G syringe. The resulting homogenate was spun at 4° C. at 1000 g for 3 min to pellet large cellular debris. 50 μL of streptavidin-coated microbeads (Miltenyi, 130-048-101) were added to the supernatant and incubated for 30 min at 4° C. with slow rotation. LS columns (Miltenyi, 130-042-401) were prepared by first washing with 3 mL IB consisting of 2.5% bovine serum albumin (BSA; Jackson ImmunoResearch, 001-000-162) and then with plain IB (3×). Prior to supernatant-microbead mixture being loaded onto LS columns, 5% volume was taken for downstream total fraction calculations (i.e., the “total/20” sample). Columns and samples were kept at 4° C. (cold room) while samples were loaded onto columns and washed with IB (3×); this fraction was collected as designated as “wash”. After the washing step, the column was removed from the QuadroMACs magnet holder (Miltenyi, 130-092-857) and eluted with gentle plunge action into an Eppendorf tube; this was labeled as “eluate”. From here, there were three fractions for each condition: total/20, wash (unbound), and eluate (bound). Since mitochondria were being isolated, these samples were spun at 4° C. and 20,000 g to pellet mitochondria. These samples were then solubilized using the lysis buffer containing 1×PBS, 2% SDS, 1% Triton x-100, 10 mM EDTA, and protease inhibitors (2 mM PMSF, aprotinin, leupeptin, and pepstatin A). Samples were then incubated at 72° C. for 3-4 min after the addition of sample buffer (SB) (DTT, glycerol, and bromophenol blue). For protein detection, 10-20 μL of the sample was subjected to sodium dodecyl sulfate-polyacrylamide gel electrophoresis (SDS-PAGE), using 13% gels. The affinity capture pulldown efficiency was monitored using in-gel fluorescence. The msGFP signal from HaloTag®-TEV-4×GS-msGFP-mito after cell lysis and SDS-PAGE was analyzed, in-gel, using a BioRad Chemidoc MP imager (BioRad) through GFP fluorescence excitation and emission filters. Data were quantified by densitometry using Fiji.^52 Capture efficiency was calculated using equation 3:
[formula] • where Ieluate is the in-gel fluorescence intensity of the bead-bound fraction and Itotal/20 is the in-gel fluorescence intensity of the 5% of crude sample reserved for concentration control (i.e., the “total/20” sample).
Evaluation of biotin-HaloTag® ligand. A live cell permeable biotin reagent was saught for affinity pulldown of HaloTag® fusion proteins, given the broad utility of biotin conjugates in biochemistry and cell biology. To evaluate the performance of biotin-containing HaloTag® ligand, an assay was developed (FIG. 3A) where the HaloTag® is expressed as a fusion with monomeric superfolder green fluorescent protein (msGFP); the construct also included an OMP25 sequence to localize the fusion protein to the outer mitochondrial membrane, allowing straightforward imaging and affinity capture experiments.^28-29 HEK293T cells expressing this fusion protein were incubated with biotin-containing HaloTag® ligands followed by washing and cell lysis. The crude supernatant was incubated with streptavidin-coated magnetic microbeads, applied to a magnetic column, and washed. The magnet was removed, and the bead-bound mitochondria were eluted, lysed, and the resulting solution was analyzed by sodium dodecyl sulfate-polyacrylamide gel electrophoresis (SDS-PAGE) and in-gel fluorescence. To minimize dilution of the sample only the initial bead-bound fraction was collected, leaving some material on the column. […]

[2] = 1-Photon spectroscopy and quantum yield of HaloTag® ligands; assay type: physicochemical; conditions: free ligand, 10 mM HEPES pH 7.3
Experimental: 1-Photon spectroscopy of HaloTag® ligands and HaloTag® conjugates. […] All measurements were taken at ambient temperature (22 ±2° C.). Absorption spectra were recorded on a Cary Model 100 spectrometer (Agilent) using 1-cm path length 1.0-mL quartz microcuvettes from Starna Cells. Fluorescence spectra were recorded on a Cary Eclipse fluorometer (Varian) using 1-cm path length 3.5-mL quartz cuvettes (Starna Cells). As before,^13, 23, 32, 45 HaloTag® protein was used as a 100 μM solution in 1×TBS. HaloTag® ligands 12-15 (5 μM) were dissolved in 10 mM HEPES, pH 7.3, containing 0.1 mg/mL CHAPS. An aliquot of HaloTag® protein (1.5 equiv) was added, and the resulting mixture was incubated until a consistent absorbance signal was observed (60-120 min). To measure the fold-increase of absorbance upon HaloTag® binding, a “no HaloTag®” control experiment was performed where an equivalent volume of TBS blank was added in place of the protein. Reported values for extinction coefficient (ε) are averages of at least two measurements.
Quantum yield determination. All reported absolute fluorescence quantum yield values (Φf) were measured in the laboratory under identical conditions using a Quantaurus-QY spectrometer (model C11374, Hamamatsu). This instrument uses an integrating sphere to determine photons absorbed and emitted by a sample. Measurements were performed using dilute samples (absorbance<0.1), and self-absorption corrections were performed using the instrument software.^46 Reported values are averages of at least two measurements.

[3] = target: T2, HaloTag® protein (HT7) (Rhodococcus rhodochrous, UniProt P0A3G2, A155T/A167V/A172T/A224E/C128F/C176G/D78G/E160K/E257K/H272N/K175M/K195N/L47V/L88M/N227D/S58T/T264A/Y273L/Y87F); assay: 1-Photon spectroscopy and quantum yield of HaloTag® conjugates; assay type: physicochemical; conditions: absence vs presence of excess HaloTag® protein
T2 construct: 6xHis (N); T7 tag (gene 10 leader) (N); Xpress tag (N); made in house; host or cells: bacterial expression (vector pRSET-A)
T2 sequence (P0A3G2 other isoform, or with tags, fused parts or gaps with the stated changes): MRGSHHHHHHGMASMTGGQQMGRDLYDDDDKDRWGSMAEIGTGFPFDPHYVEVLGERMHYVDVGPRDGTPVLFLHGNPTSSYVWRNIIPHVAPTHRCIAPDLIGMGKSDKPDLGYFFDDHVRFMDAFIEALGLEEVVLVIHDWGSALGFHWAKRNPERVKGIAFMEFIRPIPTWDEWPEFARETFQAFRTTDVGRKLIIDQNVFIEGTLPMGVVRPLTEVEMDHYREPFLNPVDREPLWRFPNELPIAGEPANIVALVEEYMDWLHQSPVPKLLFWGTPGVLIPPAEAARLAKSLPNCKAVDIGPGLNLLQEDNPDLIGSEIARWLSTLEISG
Experimental: HaloTag® protein purification. The bacterial expression vector pRSET-A (Invitrogen) was used to recombinantly express HaloTag® protein (HT7; Promega).^45 The soluble 6×His-Tagged HaloTag® protein was affinity purified by immobilized metal affinity chromatography (IMAC) on a 5-mL Fast Flow HiTrap Sepharose 6 column (Cytiva) with a 0-200 mM imidazole elution gradient using an Avant Protein Purification System (ÄKTA). A280 peak fractions were pooled, concentrated by a spin concentrator, and dialyzed 3× into tris-buffered saline (TBS). The amino acid sequence of HaloTag® protein (HT7) expressed from pRSET-A is SEQ ID NO: 1.
1-Photon spectroscopy of HaloTag® ligands and HaloTag® conjugates. […] All measurements were taken at ambient temperature (22 ±2° C.). Absorption spectra were recorded on a Cary Model 100 spectrometer (Agilent) using 1-cm path length 1.0-mL quartz microcuvettes from Starna Cells. Fluorescence spectra were recorded on a Cary Eclipse fluorometer (Varian) using 1-cm path length 3.5-mL quartz cuvettes (Starna Cells). […] An aliquot of HaloTag® protein (1.5 equiv) was added, and the resulting mixture was incubated until a consistent absorbance signal was observed (60-120 min). To measure the fold-increase of absorbance upon HaloTag® binding, a “no HaloTag®” control experiment was performed where an equivalent volume of TBS blank was added in place of the protein. […]

For `C[Si]1(C)c2cc(N3CC(F)C3)ccc2C2(OC(=O)c3ccc(C(=O)NCCOCCOCCCCCCCl)cc32)c2ccc(N3CC(F)C3)cc21` [5HTL, JF635-HaloTag® ligand, reference compound], the “affinity capture (protein bound to streptavidin)” value [1] was “no appreciable protein capture”.
With `C[Si]1(C)C2=CC(=[N+]3CC(F)(C(=O)NCCOCCOCCNC(=O)CCCC[C@@H]4SC[C@@H]5NC(=O)N[C@@H]54)C3)C=CC2=C(c2cc(C(=O)NCCOCCOCCCCCCCl)ccc2C(=O)[O-])c2ccc(N3CC(F)C3)cc21` (stereo partly shown) [compound 15, Biotin-JF635-HaloTag® ligand] the “extinction coefficient (ε)” value [2] was 2,900 M^−1cm^−1, the “fluorescence quantum yield (Φf)” value [2] was 0.60 and the λabs [2] was 636 nm. For the same molecule, the λem [2] was 655 nm, the “fluorogenicity upon conjugation to the HaloTag® protein (fold-increase of absorbance)” value [3] was 14.7 × and the capture efficiency [1] was 43.4±2.3%. For the same molecule, the “affinity capture (protein bound to streptavidin)” value [1] was “efficient affinity capture”.
For `C[Si]1(C)C2=CC(=[N+]3CC(C(=O)NCCOCCOCCNC(=O)CCCC[C@@H]4SC[C@@H]5NC(=O)N[C@@H]54)C3)C=CC2=C(c2cc(C(=O)NCCOCCOCCCCCCCl)ccc2C(=O)[O-])c2ccc(N3CCC3)cc21` (stereo partly shown) [compound 14, Biotin-JF646-HaloTag® ligand], the “extinction coefficient (ε)” value [2] was 34,000 M^−1cm^−1, the “fluorescence quantum yield (Φf)” value [2] was 0.56 and the λabs [2] was 647 nm. The λem [2] was 666 nm, the “fluorogenicity upon conjugation to the HaloTag® protein (fold-increase of absorbance)” value [3] was 2.5 × and the capture efficiency [1] was 44.8±2.8%. For the same molecule, the “affinity capture (protein bound to streptavidin)” value [1] was “efficient affinity capture”.
With “Biotin-JF549-HaloTag® ligand [compound 12]” the “extinction coefficient (ε)” value [2] was 92,000 M^−1cm^−1, the “fluorescence quantum yield (Φf)” value [2] was 0.90 and the λabs [2] was 552 nm. It also gave a λem [2] of 575 nm.
